Assay results from patent US6395741B1, “Agent for prophylaxis or treatment of dysuria” (Tanabe Seiyaku Co., Ltd., priority 1998, dated 2002).
Square brackets hold non-standard residues; d marks the D form. Ends that are not written are not given here. Peptide text beside a SMILES is read from it. Nva = CCC[C@H](N)C(=O)O

Legend:
[1] = test system: smooth muscle of hypertrophied prostatic adenoma; conditions: Journal of Japanese Urology Society, vol. 84, No. 9, 1993; cited from earlier work
anesthetized dogs = test: Urethral resistance increasing activity in the anesthetized dogs; assay type: in vivo, dog
Description: (§1) Polyethylene tubes were inserted to male adult mongrel dogs which had been fasted overnight (four dogs, weights: 10 to 14 kg), under pentobarbital anesthesia (30 mg/kg, i.v.), at the femoral veins on both sides. The anesthesia was maintained by continuous transfusion of pentobarbital (4.5 mg/kg) from said polyethylene tubes, and the dogs were ventilated by a respirator for animal (20 strokes per minute, 15 ml/kg/ventilation). Then, a polyethylene tube was inserted for administration of a test compound into the duodenum, and the urinary bladder and the proximal urethra were exposed. In order to avoid the urinary backup within the urinary bladder, a polyethylene tube having a silicon tube was inserted at the ureters on both sides, by which a way for excreting the urine from the body was reserved. Moreover, in order to determine the ventral and dorsal prostatic urethral resistances, the apex of the urinary bladder was incised, and a 2-hole open-tip catheter (12Fr, manufactured by CLINY) was inserted into the prostatic urethra through the bladder body. Said catheter was ligated at the proximal urethra and the bladder body, and one of the ends thereof was connected with a pressure-transducer and a syringe pump (SP-25, manufactured by Terumo Corporation) via a three-way turncock. Then, the change in the perfusion pressure (i.e., the change in the urethral resistance, mmHg) caused by the continuous infusion of physiological saline (37° C., 3 ml/hr) through this catheter was recorded on a linearcorder (WR-3701, manufactured by Graphtec Corporation) via a carrier amplifier (AP-621G, manufactured by Nihon Kohden Corporation).
In order to increase the urethral resistance, a solution of phenylephrine (α1 agonist) or endothelin-1 in physiological saline was intravenously administered at a prescribed dose (volume: 0.1 ml/kg) to the dogs when 60 minutes or more elapsed after the above operation.

[2] = test system: increase in urethral resistance induced by endothelin-1; test: Inhibitory activity against the increase in urethral resistance induced by endothelin-1; assay type: in vivo, dog; conditions: intraduodenal administration 1 mg/kg; endothelin-1 0.4 nmol/kg i.v.; dogs
Description: as §1, with “Moreover, in order to determine the ventral and dorsal prostatic urethral resistances, the apex of the urinary bladder was incised, and a 2-hole open-tip catheter (12Fr, manufactured by CLINY) was inserted into the prostatic urethra through the bladder body. Said catheter was ligated at the proximal urethra and the bladder body, and one of the ends thereof was connected with a pressure-transducer and a syringe pump (SP-25, manufactured by Terumo Corporation) via a three-way turncock.” left out, “Corporation). […]” for “Corporation).”

[3] = test system: prostatic contractions induced by endothelin-1; conditions: JP-A-8-508034; cited from earlier work

With `CCC[C@@H]1NC(=O)[C@@H](C(C)C)NC(=O)[C@@H]2CCCN2C(=O)[C@@H](CC(=O)O)NC(=O)[C@@H](Cc2c[nH]c3ccccc23)NC1=O` (cyclo([Nva][dW][dD]P[dV])) as the compound, how does the “Inhibition of contractions of the smooth muscle of hypertrophied prostatic adenoma induced by endothelin-1” value [1] read?
Its value is “inhibited”.

With `CNC[C@H](O)c1cccc(O)c1` [phenylephrine] as the compound, how does the “Urethral pressure (increase of the prostatic urethral resistance)” value (anesthetized dogs; phenylephrine i.v. 0.3 μg/kg, anesthetized dogs) read?
Its value is 0.8 mmHg.

And the “Urethral pressure (increase of the prostatic urethral resistance)” value (anesthetized dogs; phenylephrine i.v. 1 μg/kg, anesthetized dogs)?
The value was 2.1 mmHg.

What about the “Urethral pressure (increase of the prostatic urethral resistance)” value (anesthetized dogs; phenylephrine i.v. 3 μg/kg, anesthetized dogs) of the same compound?
The value was 3.3 mmHg.

What about the “Urethral pressure (increase of the prostatic urethral resistance)” value (anesthetized dogs; phenylephrine i.v. 10 μg/kg, anesthetized dogs) of the same compound?
Its value is 4.6 mmHg.

And the “Urethral pressure (increase of the prostatic urethral resistance)” value (anesthetized dogs; phenylephrine i.v. 30 μg/kg, anesthetized dogs)?
The value was 4.9 mmHg.

With `Cc1ccc(-c2c(NS(=O)(=O)c3ccc(C(C)(C)CO)cc3)ncnc2OCCOc2ncc(Br)cn2)cc1.[Na]` [test compound, 4-(2-hydroxy-1,1-dimethylethyl)-N-[6-{2-(5-bromopyrimidin-2-yloxy)ethoxy}-5-(4-methylphenyl)pyrimidin-4-yl]benzenesulfonamide sodium salt 1.5 hydrate] as the compound, how does the “Inhibition of the increase in urethral resistance induced by endothelin-1” value [2] read?
Its value is “completely inhibited”.

Which “Activity of inhibiting the prostatic contractions induced by endothelin-1” value [3] does the source give for “N-(4-isopropylbenzenesulfonyl)-α-(4-carboxy-2-n-propylphenoxy)-3,4-methylenedioxyphenylacetamide dipotassium salt” here?
The value was “shows an activity of inhibiting”.

With “endothelin-1 (CSCSSLMDKECVYFCHLDIIW; ends and bridges not checked; cysteine pairing not given here; UniProt P05305 53-73, looked up)” as the compound, how does the “Average increase of the urethral resistance relative to phenylephrine at 30 μg/kg” value (anesthetized dogs; endothelin-1 0.4 nmol/kg vs phenylephrine 30 μg/kg, i.v., dogs) read?
The value was “about 4 times”.

And the “Urethral pressure (increase of the prostatic urethral resistance)” value (anesthetized dogs; endothelin-1 i.v. 0.05 nmol/kg, anesthetized dogs)?
The value was 2.2 mmHg.

What about the “Urethral pressure (increase of the prostatic urethral resistance)” value (anesthetized dogs; endothelin-1 i.v. 0.1 nmol/kg, anesthetized dogs) of the same compound?
Its value is 4.5 mmHg.

What about the “Urethral pressure (increase of the prostatic urethral resistance)” value (anesthetized dogs; endothelin-1 i.v. 0.2 nmol/kg, anesthetized dogs) of the same compound?
Its value is 14.3 mmHg.

And the “Urethral pressure (increase of the prostatic urethral resistance)” value (anesthetized dogs; endothelin-1 i.v. 0.4 nmol/kg, anesthetized dogs)?
Its value is 18.9 mmHg.

What about the “Urethral pressure (increase of the prostatic urethral resistance)” value (anesthetized dogs; endothelin-1 i.v. 0.8 nmol/kg, anesthetized dogs) of the same compound?
Its value is 15.4 mmHg.

And the “Duration of the urethral resistance increasing activity” value (anesthetized dogs; i.v., anesthetized dogs, compared with phenylephrine)?
Its value is “more long-acting than that of phenylephrine”.
